Test results reported in patent US11571398B1, “Compositions comprising ephedrine or an ephedrine salt and methods of making and using same” (Nexus Pharmaceuticals, Inc., priority 2019, dated 2023).
Where two headings read alike, the source gives them in different places.

Tests used:
[1] = HPLC-UV-CAD (QTOF LC-MS) extractables of stoppers: 50/50 IPA/Water extract; format: physicochemical; conditions: stopper extract, reflux 12 hours, relative quantitation against standard (12-HDA, Irgacure 184 or Oleamide), average of duplicate injections
[2] = HPLC-UV-CAD (QTOF LC-MS) extractables of stoppers: pH 9.4 extract; format: physicochemical; conditions: stopper extract, water pH 9.4, reflux 20 hours; relative quantitation against standard (12-HDA, Irgacure 184 or Oleamide); average of duplicate injections
[3] = for ICP-MS Results (ppb) Glass vials (2% HNO3): glass vials extracted in 2% HNO3, 60° C.; for ICP-MS Results (ppb) Glass vials (2% HNO3) / ICP-MS Results (ppb) Stoppers (2% HNO3): ~24 h; for ICP-MS Results (ppb) Stoppers (2% HNO3): stoppers extracted in 2% HNO3, 60° C.
[4] = 2.5 ppb = lowest calibration concentration
[5] = stoppers, refluxed aqueous solution pH 3.4, 2.5 ppb = lowest calibration concentration

CCCC(=O)C(O)c1ccccc1 (stereo not shown) [Lot 1-Hydroxy-1-phenyl-2-pentanone]
Est. Conc. of extractable (possible identification), HPLC-UV-CAD [1]: 30.47 µg/mL
Est. Conc. of extractable (possible identification), HPLC-UV-CAD [2]: 0.10 µg/mL

CCCCCCCCCCCCCCCCCC(N)=O [Stearamide]
Est. Conc. of extractable (possible identification), HPLC-UV-CAD [1]: <0.5 µg/mL

Antimony
ICP-MS Results (ppb) Glass vials (2% HNO3) [3, 4]: <2.5 ppb
ICP-MS Results (ppb) Stoppers (Reflux pH 3.4) ([3]; pH 3.4): <2.5 ppb

CCCCCCCCCCCCCCCC(N)=O [Palmitamide]
Est. Conc. of extractable (possible identification), HPLC-UV-CAD [1]: <0.5 µg/mL

Copper
ICP-MS Results (ppb) Glass vials (2% HNO3) [3, 4]: 3.7 ppb
ICP-MS Results (ppb) Stoppers (Reflux pH 3.4) ([3]; pH 3.4): <2.5 ppb

CCCCCC[C@@H](O)C/C=C\CCCCCCCC(=O)O [Ricinoleic acid]
Est. Conc. of extractable (possible identification), HPLC-UV-CAD [1]: <0.5 µg/mL

Arsenic
ICP-MS Results (ppb) Glass vials (2% HNO3) [3, 4]: <2.5 ppb
ICP-MS Results (ppb) Stoppers (2% HNO3) [3, 4]: <2.5 ppb
ICP-MS Results (ppb) Stoppers (Reflux pH 3.4) [3, 5]: <2.5 ppb

CCCCCCCCCCCCCCCC(=O)O [Palmitic acid]
Est. Conc. of extractable (possible identification), HPLC-UV-CAD [1]: 10.74 µg/mL

Cadmium
ICP-MS Results (ppb) Glass vials (2% HNO3) [3, 4]: <2.5 ppb
ICP-MS Results (ppb) Stoppers (2% HNO3) [3, 4]: <2.5 ppb
ICP-MS Results (ppb) Stoppers (Reflux pH 3.4) [3, 5]: <2.5 ppb

CCCCCCCCCCCCOS(C)(=O)=O [Dodecyl methanesulfonate]
Est. Conc. of extractable (possible identification), HPLC-UV-CAD [1]: 0.65 µg/mL

Lead
ICP-MS Results (ppb) Glass vials (2% HNO3) [3, 4]: <2.5 ppb
ICP-MS Results (ppb) Stoppers (2% HNO3) [3, 4]: <2.5 ppb
ICP-MS Results (ppb) Stoppers (Reflux pH 3.4) [3, 5]: <2.5 ppb

CCCCCCCCCCCC(=O)NCCC[N+](C)(C)CC(=O)[O-] [Lauramidopropyl betaine]
Est. Conc. of extractable (possible identification), HPLC-UV-CAD [1]: <0.5 µg/mL

CCCCCCCC/C=C\CCCCCCCC(N)=O [Oleamide]
Est. Conc. of extractable (possible identification), HPLC-UV-CAD [1]: <0.5 µg/mL

Laureth-4
Est. Conc. of extractable (possible identification), HPLC-UV-CAD [1]: <0.5 µg/mL

CCCCCCCCCCCC(=O)O [Lauric acid]
Est. Conc. of extractable (possible identification), HPLC-UV-CAD [1]: <0.5 µg/mL

Cc1cc(C(C)(C)C)cc(S(=O)(=O)O)c1 [5-(tert-Butyl)-3-toluenesulfonic acid]
Est. Conc. of extractable (possible identification), HPLC-UV-CAD [1]: 0.25 µg/mL

CCCCOCCOCCOC(C)=O [Butyldiglycol acetate]
Est. Conc. of extractable (possible identification), HPLC-UV-CAD [1]: <0.5 µg/mL

Lithium
ICP-MS Results (ppb) Glass vials (2% HNO3) [3, 4]: 2.6 ppb
ICP-MS Results (ppb) Stoppers (Reflux pH 3.4) ([3]; pH 3.4): <2.5 ppb

C1COCCOCCSSCCOCCO1
Est. Conc. of extractable (possible identification), HPLC-UV-CAD [1]: <0.5 µg/mL

OCCOCCOCCO [Triethylene glycol]
Est. Conc. of extractable (possible identification), HPLC-UV-CAD [1]: <0.5 µg/mL
Est. Conc. of extractable (possible identification), HPLC-UV-CAD [2]: <0.5 µg/mL

CCCCCCCCCCCCCC(=O)O [Myristic acid]
Est. Conc. of extractable (possible identification), HPLC-UV-CAD [1]: <0.5 µg/mL

Laureth-3
Est. Conc. of extractable (possible identification), HPLC-UV-CAD [1]: <0.5 µg/mL

Cobalt
ICP-MS Results (ppb) Glass vials (2% HNO3) [3, 4]: 2.6 ppb
ICP-MS Results (ppb) Stoppers (Reflux pH 3.4) ([3]; pH 3.4): <2.5 ppb

O=S(O)S(=O)O [Dithionous acid]
Est. Conc. of extractable (possible identification), HPLC-UV-CAD [2]: 3.52 µg/mL

Laureth-9
Est. Conc. of extractable (possible identification), HPLC-UV-CAD [1]: <0.5 µg/mL
